Laboratory results as given in patent US4840949A, “Oxadiazole-alkyl-purine derivatives useful as antitussive agents” (Chinoin Gyogyszer Es Vegyeszeti Termekek Gyara Rt., priority 1986, dated 1989).
Counter-ions that a name gives are not always drawn.

What was measured:
[1] = Coughing caused by mechanical stimulation of the trachea bifurcatio on rabbits narcotised by nembutal, i.v. administration; type: in vivo, rabbit
in vivo = details: rat, ip
[2] = Alleviation of coughing caused by 15% citric acid spray on guinea pig, oral administration; type: in vivo; details: for ED50: Cavia porcellus, po; for absolute strength of the antitussive effect, in words: Table I
Protocol: The aforesaid facts are supported by Table I wherein the ID50 mg/kg values of 3,7-dihydro-3-methyl-7-[(5-methyl-1,2,4-oxadiazole-3-yl)-methyl]-1H-purine-2,6-dione (the most simple representative of the compounds of the Formula I); two known 1,2,4-oxadiazole-type antitussive agents, codeine and dextromethorphane (morphine type reference compounds) in the alleviation of coughing caused by a 15% citric acid spray are disclosed. […] As test animal guinea pigs are used. (Method: Arzneimittel Forschung 1966, 617-621). Test compound No. 5 is 2-(3-methyl-xanthine-7-yl)-acetamidoxime (a starting material of the Formula II).
Alleviation of coughing caused by 15% citric acid spray on
guinea pig, the test compounds are administered orally
Antitussive effect of p.o. administered 3,7-dihydro-3-methyl-7-
[(5-methyl-1,2,4-oxadiazole-3-yl)-methyl]-lH--purine-2,6-dione
on coughing induced by 15% citric acid spray on guinea pig

[3] = 1 hour pre-treatment, 15% citric acid spray, read-out: Antitussive effect, measured 1 hour after oral administration ID50

With `Cc1nc(Cn2cnc3c2c(=O)[nH]c(=O)n3C)no1` [Compound 1, 3,7-dihydro-3-methyl-7-[(5-methyl-1,2,4-oxadiazole-3-yl)-methyl]-1H-purine-2,6-dione] as the compound, how does the ED50 ([1]; Oryctolagus cuniculus, iv, 2 min, rabbit, i.v., 2 minutes after administration, calculated according to Lichfield-Wilcoxon) read?
Its ED50 is 2.24 mg/kg.

What about the “decrease of coughing caused by mechanical stimulation” value ([1]; rabbit, 0.5-8.0 mg/kg i.v.) of the same compound?
Its value is “decreases in dose-dependant manner”.

And the “therapeutical index relative to reference compounds Nos. 4 and 6” value ([1]; taking into consideration the I.O. toxicity data)?
Its value is “ten times more favorable”.

And the LD50 (in vivo)?
Its LD50 is 700 mg/kg.

What about the ED50 [2, 3] of the same compound?
The ED50 was 8.5 mg/kg.

And the ED50 ([2]; pre-treatment time 2.0 h, read-out: ID50, pre-treatment time 2.0 h)?
Its ED50 is 14.4 mg/kg.

And the ED50 ([2]; pre-treatment time 4.0 h, read-out: ID50, pre-treatment time 4.0 h)?
The ED50 was 13.8 mg/kg.

And the ED50 ([2]; pre-treatment time 8.0 h, read-out: ID50, pre-treatment time 8.0 h)?
Its ED50 is 32.6 mg/kg.

What about the ED50 ([2]; read-out: ID50, pre-treatment time 0.5 h, p.o., pre-treatment time 0.5 h) of the same compound?
Its ED50 is 7.5 mg/kg.

And the “absolute strength of the antitussive effect, in words” value ([2]; p.o.)?
Its value is “significantly higher than that of reference compounds Nos. 2-4 and 6”.

What about the “duration of oral antitussive effect” value ([2]; p.o., Table I/A) of the same compound?
Its value is “very long-lasting”.

With `Cc1nc(Cn2cnc3c2c(=O)n(C)c(=O)n3C)no1` [Compound 2, 3,7-dihydro-1,3-dimethyl-7-[(5-methyl-1,2,4-oxadiazole-3-yl)-methyl]-1H--purine-2,6-dione, reference compound] as the compound, how does the ED50 [2, 3] read?
Its ED50 is 111 mg/kg.

Which “antitussive effect relative to compound No. 1” value ([1]; rabbit, i.v.) does the source give for `COc1ccc2c3c1O[C@H]1[C@@H](O)C=C[C@H]4[C@@H](C2)N(C)CC[C@@]341` [Compound 4, Codeine.HCl, reference compound] here?
The value was “the same or a somewhat lower antitussive effect”.

And the LD50 (in vivo)?
Its LD50 is 72.4 mg/kg.

With `Cn1c(=O)[nH]c(=O)c2c1ncn2CC(N)=NO` [Compound 5, 2-(3-methyl-xanthine-7-yl)-acetamidoxime, reference compound] as the compound, how does the “Antitussive effect at 50 mg/kg” value ([2]; 50 mg/kg p.o., 1 hour after administration) read?
The value was “inactive”.

And the “absolute strength of the antitussive effect, in words” value ([2]; p.o.)?
The value was “practically negligible”.

Which “antitussive effect relative to compound No. 1” value ([1]; rabbit, i.v.) does the source give for `COc1ccc2c(c1)[C@]13CCCC[C@@H]1[C@H](C2)N(C)CC3` [Compound 6, Dextromethorphan, reference compound] here?
Its value is “the same or a somewhat lower antitussive effect”.
